Numbered stars: 1 amine (or outer) side, 2 acyl side, 3 side chain; on linkers, the order of the positions; unused ones are H or OH. Bridge positions count the residues as written; N and C are the ends. Square brackets hold non-standard residues; d marks the D form. Side chains are listed from the residue outwards. Peptide text beside a SMILES is read from it. * marks the point of attachment. Piperazinyl(4-CH2COOH) = O=C(O)CN1CCN(*)CC1; Trp(1-Me) = Cn1cc(C[C@H](N)C(=O)O)c2ccccc21; NMe3Pal = CN[C@@H](Cc1cccnc1)C(=O)O; NMeF = CN[C@@H](Cc1ccccc1)C(=O)O; Aad = N[C@@H](CCCC(=O)O)C(=O)O; CO = O=C([*:1])[*:2]; βAla = NCCC(=O)O
Biological target: T1, Recombinant Human EphA2 Fc Protein (Homo sapiens, UniProt P29317)
T1 construct: purchased Elabscience
Assay: SPR interaction analysis (Biacore T200), kinetics of peptides against EphA2
Format: binding
Conditions: Recombinant Human EphA2 Fc Protein captured by Human Antibody Capture kit; single-cycle kinetics; 25° C.; HBS-P+ buffer with 1% DMSO
Experimental: Example 14 Interaction Analysis by SPR was Performed Using Biacore (Cytiva)
SPR assay was performed using Biacore T200 (Cytiva).
The HBS-P+ buffer (10 mM HEPES (pH7.4), 150 mM NaCl, 0.05% (v/V) Surfactant P20) containing 1% DMSO was used as running buffer. Recombinant Human EphA2 Fc Protein (Fc tag, Elabscience) was captured by Human Antibody Capture kit (Cytiva). Peptide samples in DMSO were diluted with running buffer, and prepared five serial dilutions. Using these serial dilutions, kinetics of peptides against EphA2 was measured at a flow rate of 30 mL/min at 25° C. The method adopted for sample measurement was a single-cycle kinetics method. The analysis was conducted using the evaluation software 3.0 provided with Biacore T200. Kinetics fitting was done on the difference data obtained by subtracting the baseline data from sample measurement data. KD values were calculated based on the association rate constant (ka) and dissociation rate constant (kd).

Row | SMILES | Kd [nM]
1 | CC(=O)NCCCC[C@@H](NC(=O)CCNC(=O)[C@@H]1CSCC(=O)N[C@H](CCCCNC(=O)N2CCN(CC(=O)O)CC2)C(=O)N(C)[C@@H](Cc2cccnc2)C(=O)N[C@@H](CC(N)=O)C(=O)N[C@@H](CC(C)C)C(=O)N[C@@H](CCCCNC(=O)N2CCN(CC(=O)O)CC2)C(=O)N(C)[C@@H](Cc2ccccc2)C(=O)N[C@@H](Cc2cn(C)c3ccccc23)C(=O)N[C@@H](C(C)C)C(=O)N[C@@H](Cc2cn(C)c3ccccc23)C(=O)N[C@@H]([C@@H](C)O)C(=O)N[C@@H](CCC(=O)O)C(=O)N1)C(N)=O [PDC_EphA2-00008085, dkCOpipzaa-Me3Py-N-L-KCOpipzaa-MeF-W1Me-V-W1Me-T-E-C-bA-dkAc-NH2] ({CH2CO}-[dK]([CO-Piperazinyl(4-CH2COOH)])[NMe3Pal]NLK([CO-Piperazinyl(4-CH2COOH)])[NMeF][Trp(1-Me)]V[Trp(1-Me)]TEC[βAla][dK](Ac)-NH2; thioether N-12) | 1 to 10
2 | CC(=O)NCCCC[C@@H](NC(=O)CCNC(=O)[C@@H]1CSCC(=O)N[C@H](CCCCNC(=O)N2CCN(CC(=O)O)CC2)C(=O)N(C)[C@@H](Cc2cccnc2)C(=O)N[C@@H](CC(N)=O)C(=O)N[C@@H](CC(C)C)C(=O)N[C@@H](CCCCNC(=O)N2CCN(CC(=O)O)CC2)C(=O)N(C)[C@@H](Cc2ccccc2)C(=O)N[C@@H](Cc2cn(C)c3ccccc23)C(=O)N[C@@H](C(C)C)C(=O)N[C@@H](Cc2cn(C)c3ccccc23)C(=O)N[C@@H]([C@@H](C)O)C(=O)N[C@@H](CCCC(N)=O)C(=O)N1)C(N)=O [PDC_EphA2-00008086, dkCOpipzaa-Me3Py-N-L-KCOpipzaa-MeF-W1Me-V-W1Me-T-Hgn-C-bA-dkAc-NH2] ({CH2CO}-[dK]([CO-Piperazinyl(4-CH2COOH)])[NMe3Pal]NLK([CO-Piperazinyl(4-CH2COOH)])[NMeF][Trp(1-Me)]V[Trp(1-Me)]T[Aad](NH2)C[βAla][dK](Ac)-NH2; thioether N-12) | < 1
3 | CC(=O)NCCCC[C@@H](NC(=O)CCNC(=O)[C@@H]1CSCC(=O)N[C@H](C)C(=O)N(C)[C@@H](Cc2cccnc2)C(=O)N[C@@H](CC(N)=O)C(=O)N[C@@H](CC(C)C)C(=O)N[C@@H](CCCC(=O)O)C(=O)N(C)[C@@H](Cc2ccccc2)C(=O)N[C@@H](Cc2cn(C)c3ccccc23)C(=O)N[C@@H](CCCCNC(=O)N2CCN(CC(=O)O)CC2)C(=O)N[C@@H](Cc2cn(C)c3ccccc23)C(=O)N[C@@H]([C@@H](C)O)C(=O)N[C@@H](CCC(=O)O)C(=O)N1)C(N)=O [PDC_EphA2-00008087, da-Me3Py-N-L-Hgl-MeF-W1Me-KCOpipzaa-W1Me-T-E-C-bA-dkAc-NH2] ({CH2CO}-[dA][NMe3Pal]NL[Aad][NMeF][Trp(1-Me)]K([CO-Piperazinyl(4-CH2COOH)])[Trp(1-Me)]TEC[βAla][dK](Ac)-NH2; thioether N-12) | < 1
4 | CC(=O)NCCCC[C@@H](NC(=O)CCNC(=O)[C@@H]1CSCC(=O)N[C@H](C)C(=O)N(C)[C@@H](Cc2cccnc2)C(=O)N[C@@H](CC(N)=O)C(=O)N[C@@H](CC(C)C)C(=O)N[C@@H](CCCCNC(=O)N2CCN(CC(=O)O)CC2)C(=O)N(C)[C@@H](Cc2ccccc2)C(=O)N[C@@H](Cc2cn(C)c3ccccc23)C(=O)N[C@@H](CCCCNC(=O)N2CCN(CC(=O)O)CC2)C(=O)N[C@@H](Cc2cn(C)c3ccccc23)C(=O)N[C@@H]([C@@H](C)O)C(=O)N[C@@H](CCC(=O)O)C(=O)N1)C(N)=O [PDC_EphA2-00008088, da-Me3Py-N-L-KCOpipzaa-MeF-W1Me-KCOpipzaa-W1Me-T-E-C-bA-dkAc-NH2] ({CH2CO}-[dA][NMe3Pal]NLK([CO-Piperazinyl(4-CH2COOH)])[NMeF][Trp(1-Me)]K([CO-Piperazinyl(4-CH2COOH)])[Trp(1-Me)]TEC[βAla][dK](Ac)-NH2; thioether N-12) | < 1

Further lines, results first:

Row | Kd [nM] | SMILES
5 | < 1 | CC(=O)NCCCC[C@H](NC(=O)[C@@H]1CSCC(=O)N[C@H](C)C(=O)N(C)[C@@H](Cc2cccnc2)C(=O)N[C@@H](CC(N)=O)C(=O)N[C@@H](CC(C)C)C(=O)N[C@@H](CCCCNC(=O)N2CCN(CC(=O)O)CC2)C(=O)N(C)[C@@H](Cc2ccccc2)C(=O)N[C@@H](Cc2cn(C)c3ccccc23)C(=O)N[C@@H](CCCCNC(=O)N2CCN(CC(=O)O)CC2)C(=O)N[C@@H](Cc2cn(C)c3ccccc23)C(=O)N[C@@H]([C@@H](C)O)C(=O)N[C@@H](CCC(=O)O)C(=O)N1)C(N)=O [PDC_EphA2-00008089, da-Me3Py-N-L-KCOpipzaa-MeF-W1Me-KCOpipzaa-W1Me-T-E-C-KAc-NH2] ({CH2CO}-[dA][NMe3Pal]NLK([CO-Piperazinyl(4-CH2COOH)])[NMeF][Trp(1-Me)]K([CO-Piperazinyl(4-CH2COOH)])[Trp(1-Me)]TECK(Ac)-NH2; thioether N-12)
6 | < 1 | CC(=O)NCCCC[C@@H](NC(=O)[C@@H]1CSCC(=O)N[C@H](C)C(=O)N(C)[C@@H](Cc2cccnc2)C(=O)N[C@@H](CC(N)=O)C(=O)N[C@@H](CC(C)C)C(=O)N[C@@H](CCCCNC(=O)N2CCN(CC(=O)O)CC2)C(=O)N(C)[C@@H](Cc2ccccc2)C(=O)N[C@@H](Cc2cn(C)c3ccccc23)C(=O)N[C@@H](CCCCNC(=O)N2CCN(CC(=O)O)CC2)C(=O)N[C@@H](Cc2cn(C)c3ccccc23)C(=O)N[C@@H]([C@@H](C)O)C(=O)N[C@@H](CCC(=O)O)C(=O)N1)C(N)=O [PDC_EphA2-00008090, da-Me3Py-N-L-KCOpipzaa-MeF-W1Me-KCOpipzaa-W1Me-T-E-C-dkAc-NH2] ({CH2CO}-[dA][NMe3Pal]NLK([CO-Piperazinyl(4-CH2COOH)])[NMeF][Trp(1-Me)]K([CO-Piperazinyl(4-CH2COOH)])[Trp(1-Me)]TEC[dK](Ac)-NH2; thioether N-12)
7 | < 1 | CC(=O)NCCCC[C@@H](NC(=O)CCNC(=O)[C@@H]1CSCC(=O)N[C@H](C)C(=O)N(C)[C@@H](Cc2cccnc2)C(=O)N[C@@H](CC(N)=O)C(=O)N[C@@H](CC(C)C)C(=O)N[C@@H](CCCC(=O)O)C(=O)N(C)[C@@H](Cc2ccccc2)C(=O)N[C@@H](Cc2cn(C)c3ccccc23)C(=O)N[C@@H](CCCCNC(=O)N2CCN(CC(=O)O)CC2)C(=O)N[C@@H](Cc2cn(C)c3ccccc23)C(=O)N[C@@H]([C@@H](C)O)C(=O)N[C@@H](CCCC(N)=O)C(=O)N1)C(N)=O [PDC_EphA2-00008091, da-Me3Py-N-L-Hgl-MeF-W1Me-KCOpipzaa-W1Me-T-Hgn-C-bA-dkAc-NH2] ({CH2CO}-[dA][NMe3Pal]NL[Aad][NMeF][Trp(1-Me)]K([CO-Piperazinyl(4-CH2COOH)])[Trp(1-Me)]T[Aad](NH2)C[βAla][dK](Ac)-NH2; thioether N-12)
8 | < 1 | CC(=O)NCCCC[C@@H](NC(=O)CCNC(=O)[C@@H]1CSCC(=O)N[C@H](C)C(=O)N(C)[C@@H](Cc2cccnc2)C(=O)N[C@@H](CC(N)=O)C(=O)N[C@@H](CC(C)C)C(=O)N[C@@H](CCCCNC(=O)N2CCN(CC(=O)O)CC2)C(=O)N(C)[C@@H](Cc2ccccc2)C(=O)N[C@@H](Cc2cn(C)c3ccccc23)C(=O)N[C@@H](CCCCNC(=O)N2CCN(CC(=O)O)CC2)C(=O)N[C@@H](Cc2cn(C)c3ccccc23)C(=O)N[C@@H]([C@@H](C)O)C(=O)N[C@@H](CCCC(N)=O)C(=O)N1)C(N)=O [PDC_EphA2-00008092, da-Me3Py-N-L-KCOpipzaa-MeF-W1Me-KCOpipzaa-W1Me-T-Hgn-C-bA-dkAc-NH2] ({CH2CO}-[dA][NMe3Pal]NLK([CO-Piperazinyl(4-CH2COOH)])[NMeF][Trp(1-Me)]K([CO-Piperazinyl(4-CH2COOH)])[Trp(1-Me)]T[Aad](NH2)C[βAla][dK](Ac)-NH2; thioether N-12)

Source: patent US20260098061A1, “EPHA2-BINDING PENDING PEPTIDE AND COMPOSITION COMPRISING SAME” (PeptiDream Inc., priority 2022, published 2026)
